Experimental data from publication PMC9026428, “New Peptide Based Fluconazole Conjugates with Expanded Molecular Targets” (Pharmaceutics, 2022).
Converted amounts (≈) assume the structure as drawn. Non-standard residues stand in square brackets, D forms with d. Residues, ends and D or L forms follow the SMILES beside them. Nle = CCCC[C@H](N)C(=O)O

What was measured:
[1] = MTT cytotoxicity assay; conditions: human, Hs27 cells (human foreskin fibroblast cell line)
Procedure: (§1) The assessment of antifungal potential of synthesized agents was carried out using four reference strains (C. albicans ATCC 10231, C. albicans SC5314, C. glabrata DSM […] and C. krusei DSM […]) and six clinical isolates of fluconazole-resistant C. albicans that were provided by the Hospital of Medical University of Gdansk, Poland. Moreover, four C. albicans isolates, assigned as B3, B4, Gu4 and Gu5, were used for investigation whether the synthesized fluconazole derivatives were effectively removed from the yeast cells by the drug efflux transporters, as in the case of fluconazole. These strains were kindly provided by Prof. Joachim Morschhäuser from University of Würzburg (Würzburg, Germany). Strains Gu4 and B3 were fluconazole-sensitive isolates obtained from early infection episodes, while Gu5 and B4 were the corresponding fluconazole-resistant isolates obtained from later episodes in the same patients treated with fluconazole. The lack of susceptibility of the Gu5 strain to fluconazole was a consequence of overexpression of CDR1/2 genes encoding ABC transporters, whereas the resistance of B4 strain was caused by overexpression of the MDR1 gene encoding a membrane transport protein of the major facilitator superfamily (MFS). All of these Candida spp. strains were maintained on YPD agar plates (1% (w/v) yeast extract, 2% (w/v) peptone, 2% (w/v) glucose, 2% (w/v) agar) at 30 °C for 16–24 h. For all of the assays aimed at assessing the antifungal potential of the synthesized agents, the yeasts were cultivated at 37 °C in RPMI 1640 medium (with L-glutamine, without sodium bicarbonate, Sigma-Aldrich, Darmstadt, Germany)) buffered to a pH of 7.0 with 0.165 M morpholinepropanesulfonic acid (MOPS) buffer (Sigma-Aldrich). In this study, we used the human foreskin fibroblast cell line Hs27 (ATCC CRL 1634TM) and the human endothelial cell line HUVEC (C2519A), purchased from Lonza Group AG, (Basel, Switzerland). The Hs27 cells were maintained in cell media consisting of Dulbecco’s modified Eagles medium (DMEM), (Corning, Arizona, USA) with 10% fetal bovine serum (FBS), (Corning, Port Elizabeth, South Africa), 1% penicillin/streptomycin (Sigma-Aldrich Inc., Darmstadt, Germany), and 1% L-glutamine (Corning, Arizona, USA). The human endothelial cell line was maintained in cell media consisting of Endothelial Cell Growth Medium-2 Single Quots Kit (Lonza, USA). Both cell lines were cultured in an incubator at 37 °C and 5% CO2.
(§2) Hs27 and HUVEC mammalian cell lines were cultured as mentioned above. Once cell lines were about 80% confluent, cells were counted by a hemacytometer (Hausser Scientific, Horsham, PA, USA) and plated in 96-well microtiter plates at concentrations of 4500 cells per well for Hs27 and 2000 cells per well for HUVEC. Cells were allowed to attach overnight. […] The final concentration of DMSO was ensured to be around 1% in all experiments. Cells were incubated with studied compounds for 72 h at 37 °C and 5% CO2. After incubation, 20 µL of MTT solution in PBS (4 mg/mL) was added to all wells and incubated further for 3 h at 37 °C. Formed formazan crystals were dissolved in 150 µL DMSO, and absorbance was measured using an Asys UVM340 multi-well plate reader at λ = 540 nm. Cytotoxicity was determined compared to drug-free control. All experiments were performed in biological triplicates.

[2] = system: Hs27 cells (human foreskin fibroblast cell line); experiment: MTT cytotoxicity assay
Procedure: as §1, §2

[3] = system: Candida krusei DSM 11226; experiment: microbe, parasite or virus in culture; conditions: Pichia kudriavzevii, DSM11226, 24 h, pH 7
Procedure: as §1
(§3) Antifungal activity of the tested compounds against yeast cells was determined in 96-well plates as described in the CLSI document M27-A3 [39], with minor modifications (CLSI, 2008). […] The plates were incubated for 24 h at 37 °C. Each test was performed in triplicate. The final concentration of DMSO was ensured to be around 1% in all experiments.
(§4) For determination of minimum fungicidal concentrations (MFC), small aliquots of suspensions (around 10 μL) from each well were transferred using the pipette to YPD agar plates without inhibitors and incubated for 24 h at 37 °C.

[4] = system: Candida albicans 190; experiment: microbe, parasite or virus in culture; conditions: Candida albicans, 190, 24 h, pH 7
Procedure: as §1, §3, §4

[5] = system: Candida albicans 574; experiment: microbe, parasite or virus in culture; conditions: Candida albicans, 574, 24 h, pH 7
Procedure: as §1, §3, §4

[6] = system: Candida albicans SC 5314; experiment: microbe, parasite or virus in culture; conditions: Candida albicans, SC5314, 24 h, pH 7
Procedure: as §1, §3, §4

[7] = system: Candida albicans B3; experiment: microbe, parasite or virus in culture; conditions: Candida albicans, B3, 24 h, pH 7
Procedure: as §1, §3, §4

[8] = system: Candida albicans ATCC 10231; experiment: microbe, parasite or virus in culture; conditions: Candida albicans, ATCC10231, 24 h, pH 7
Procedure: as §1, §3, §4

[9] = system: Candida albicans 247; experiment: microbe, parasite or virus in culture; conditions: Candida albicans, 247, 24 h, pH 7
Procedure: as §1, §3, §4

[10] = system: Candida albicans Gu5; experiment: microbe, parasite or virus in culture; conditions: Candida albicans, GU5, 24 h, pH 7
Procedure: as §1, §3, §4

[11] = system: Candida albicans 48; experiment: microbe, parasite or virus in culture; conditions: Candida albicans, 48, 24 h, pH 7
Procedure: as §1, §3, §4

[12] = system: Candida albicans 138; experiment: microbe, parasite or virus in culture; conditions: Candida albicans, 138, 24 h, pH 7
Procedure: as §1, §3, §4

[13] = system: Candida albicans B4; experiment: microbe, parasite or virus in culture; conditions: Candida albicans, B4, 24 h, pH 7
Procedure: as §1, §3, §4

[14] = system: Candida albicans Gu4; experiment: microbe, parasite or virus in culture; conditions: Candida albicans, GU4, 24 h, pH 7
Procedure: as §1, §3, §4

[15] = system: Candida albicans 604; experiment: microbe, parasite or virus in culture; conditions: Candida albicans, 604, 24 h, pH 7
Procedure: as §1, §3, §4

[16] = system: Candida glabrata DSM 6128; experiment: microbe, parasite or virus in culture; conditions: Nakaseomyces glabratus, DSM6128, 24 h, pH 7
Procedure: as §1, §3, §4

[17] = in vivo; cited from earlier work
Procedure: Fluconazole is water-soluble, safe for patients even at a high daily dose ([…]), can be applied either intravenously or orally, and has a beneficial pharmacokinetic profile and broad spectrum of activity.

[18] = system: C. albicans SC5314; experiment: Membrane permeabilization assay by propidium iodide uptake (flow cytometry, fluorescence microscopy); type: cell-based, Candida albicans
Procedure: Suspensions of C. albicans SC5314 were prepared by taking one loop of pure culture growth from 24 h YPD agar plates into RPMI 1640 medium and adjusting optical density to 0.1 at 660 nm wavelength. […] The cell suspensions were then treated for 0.5, 2, 4, 6, and 24 h at 37 °C with continuous agitation (180 rpm). The cells were then centrifuged and resuspended in 200 µL of PBS buffer (pH 7.4). Subsequently, cells were treated with propidium iodide (1 mg/mL, final concentration) and incubated for 30 min at room temperature in the dark. Cellular fluorescence was visualized using lens 20×, using Olympus Fluorescence Microscope BX60 (Olympus, Tokyo, Japan). The images were also post-processed utilizing cell Sens program. The fluorescence intensity emitted by DNA-bound propidium iodide was measured using a flow cytometer (Merck Millipore guava easyCyte 8, Darmstadt, Germany). Data were obtained from at least two independent experiments.

[19] = system: HUVEC cells (human umbilical venous endothelial primary cells); experiment: MTT cytotoxicity assay
Procedure: as §1, §2

[20] = MTT cytotoxicity assay; conditions: human
Procedure: as §1, §2

[21] = system: C. krusei DSM 6128; conditions: C. krusei DSM 6128, RPMI-1640, 200 – 0.4 μg/mL range
Procedure: (§5) The selective activities of the FLC-conjugates were calculated according to the following formula
(§6) (1 picture or pasted object on this page, not shown here)

[22] = system: C. glabrata DSM 11226; conditions: C. glabrata DSM 11226, RPMI-1640, 200 – 0.4 μg/mL range
Procedure: as §5, §6

[23] = system: C. albicans ATCC 10231; conditions: C. albicans ATCC 10231, RPMI-1640, 200 – 0.4 μg/mL range
Procedure: as §5, §6

[24] = system: C. parapsilosis DSM 5784; conditions: C. parapsilosis DSM 5784, RPMI-1640, 200 – 0.4 μg/mL range
Procedure: as §5, §6

[25] = system: C. tropicalis (clinical); conditions: RPMI-1640, 200 – 0.4 μg/mL range
Procedure: as §5, §6

[26] = system: C. albicans SC5314; conditions: C. albicans SC5314, RPMI-1640, 200 – 0.4 μg/mL range
Procedure: as §5, §6

[27] = system: C. albicans opt1-opt5Δptr2Δptr22Δ; conditions: RPMI-1640, 200 – 0.4 μg/mL range
Procedure: as §5, §6

SMILES: OC(Cn1cncn1)(Cn1cncn1)c1ccc(F)cc1F [FLC, fluconazole]
- IC50 at 72 h [1]: > 100 µM
- In vitro cytotoxicity IC90 ± SEM [2]: >100 µM
- MIC50 [3]: 70 µM (≈ 21.4 µg/mL)
- MIC90 [3]: 125 µM (≈ 38.3 µg/mL)
- MIC90 [4]: > 250 µM
- MIC90 [5]: > 250 µM
- MIC50 [6]: < 8 µM
- MIC90 [6]: < 8 µM
- MIC90 [7]: 15 µM (≈ 4.59 µg/mL)
- MIC50 [8]: < 8 µM
- MIC90 [8]: < 8 µM
- MIC90 [9]: > 250 µM
- MIC90 [10]: > 250 µM
- MIC90 [11]: > 250 µM
- MIC90 [12]: > 250 µM
- MIC90 [13]: 62 µM (≈ 19 µg/mL)
- MIC90 [14]: 31 µM (≈ 9.49 µg/mL)
- MIC90 [15]: > 250 µM
- MIC50 [16]: 62 µM (≈ 19 µg/mL)
- MIC90 [16]: 250 µM (≈ 76.6 µg/mL)
- incidence rate of azole-induced liver injury [17]: 1%
- cell membrane disruption (PI uptake), in words ([18]; C. albicans SC5314, 8 × MIC (62 µM), 4 or 6 h): No symptoms of cell membrane disruption
- Dead (%), PI uptake by flow cytometry ([18]; SC5314, 4 h): 2,50%
- Live (%), PI uptake by flow cytometry ([18]; SC5314, 4 h): 97,5%
- Dead (%), PI uptake by flow cytometry ([18]; SC5314, 6 h): 2,83%
- Live (%), PI uptake by flow cytometry ([18]; SC5314, 6 h): 97,2%
- In vitro cytotoxicity IC90 ± SEM [19]: >100 µM
- IC50 at 72 h [20]: > 100 µM

SMILES: CCCC[C@H](NC(=O)[C@H](CCCNC(=N)N)NC(=O)[C@H](Cc1c[nH]c2ccccc12)NC(=O)[C@H](CCC(N)=O)NC(=O)[C@H](Cc1c[nH]c2ccccc12)NC(=O)[C@H](CCCNC(=N)N)NC(=O)[C@H](CCCNC(=N)N)NC(=O)[C@H](CS)NC(=O)[C@H](CCCCN)NC(=O)[C@H](Cc1ccccc1)NC(=O)[C@@H](N)CCCC)C(=O)N[C@@H](CCCCN)C(=O)N[C@@H](CCCCN)C(=O)N[C@@H](CC(C)C)C(=O)NCC(N)=O [LFacinB[Nle^1,11]-NH2] (H-[Nle]FKCRRWQWR[Nle]KKLG-NH2; N-terminus assumed)
- MIC50 [21]: 100 µg/mL (≈ 49.6 µM)
- MIC90 [21]: 100 µg/mL (≈ 49.6 µM)
- MIC50 [22]: > 100 µg/mL
- MIC90 [22]: > 100 µg/mL
- MIC50 [23]: > 100 µg/mL
- MIC90 [23]: > 100 µg/mL
- MIC50 [24]: > 100 µg/mL
- MIC90 [24]: > 100 µg/mL
- MIC50 [25]: 50 µg/mL (≈ 24.8 µM)
- MIC90 [25]: > 100 µg/mL

SMILES: CC[C@H](C)[C@H](NC(=O)[C@H](CCCCN)NC(=O)[C@H](CCCCN)NC(=O)[C@H](C)NC(=O)[C@H](CC(C)C)NC(=O)[C@H](C)NC(=O)[C@H](C)NC(=O)[C@H](CC(C)C)NC(=O)[C@H](C)NC(=O)[C@H](CCCCN)NC(=O)[C@H](CC(C)C)NC(=O)[C@H](CC(N)=O)NC(=O)[C@@H](NC(=O)[C@H](CCCCN)NC(=O)CNC(=O)[C@H](CC(C)C)NC(=O)[C@H](CC(C)C)NC(=O)[C@H](Cc1ccc(O)cc1)NC(=O)CNC(=O)[C@H](C)N)[C@@H](C)CC)C(=O)N[C@@H](CC(C)C)C(N)=O [TP10-NH2]
- MIC50 [26]: 50 µg/mL (≈ 22.9 µM)
- MIC90 [26]: 50 µg/mL (≈ 22.9 µM)
- MIC50 [21]: 50 µg/mL (≈ 22.9 µM)
- MIC90 [21]: 50 µg/mL (≈ 22.9 µM)
- MIC50 [22]: 200 µg/mL (≈ 91.7 µM)
- MIC90 [22]: 200 µg/mL (≈ 91.7 µM)
- MIC50 [23]: 200 µg/mL (≈ 91.7 µM)
- MIC90 [23]: 200 µg/mL (≈ 91.7 µM)
- MIC50 [27]: 25 µg/mL (≈ 11.5 µM)
- MIC90 [27]: 25 µg/mL (≈ 11.5 µM)
